The text below walks through data of US7105534B2, “Imidazo[1,2-α]pyridine ether compounds as ion channel modulators” (Cardiome Pharma Corp., priority 2000, dated 2006).

The IC50 is the concentration that gives 50% inhibition.

Holding throughout (type): cell-based
One experiment deals with T1, HERG (Homo sapiens, UniProt Q12809).
T1 construct: expressed in transfected cells; host or cells: HEK cells, transient transfection, vector pCDNA3
Briefly: Patch-clamp inhibition of cloned ion channel current in transfected HEK cells: HERG. The settings on record: whole-cell patch clamp. The procedure, abridged:
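HERG channels were expressed by transient lipofection of HEK cells with pCDNA3 plus the pHook-1 marker, and bead-tagged cells were selected after 24–48 hours. Whole-cell currents were recorded at 22C to 23C with an Axopatch 200A in KCl pipette and NaCl bath solutions. Compound was applied at 0.5 to 100 μM, and IC50 came from Hill equation fits.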
A general note: Patch clamp records ionic current or voltage across a cell membrane.

The target of a further experiment is T2, hH1 Na+ current (Homo sapiens, UniProt Q14524).
T2 construct: expressed in transfected cells; host or cells: HEK cells, transient transfection, vector pCDNA3
In words: Patch-clamp inhibition of cloned ion channel current in transfected HEK cells: Na. To be noted: peak hH1 Na+ current, -100 mV to -30 mV. On the procedure: (§1) The relevant cloned ion channels (e.g. cardiac hH1, Kv1.4, Kv1.5, Kv4.2, Kv2.1, HERG etc.) are studied by transient transfection into HEK cells using the mammalian expression vector pCDNA3. Transfections for each channel type are carried out separately to allow individual study of the ion channel of interest. Cells expressing channel protein are detected by cotransfecting cells with the vector pHook-1 (Invitrogen, San Diego, Calif., USA). […] Equal concentrations of individual channel and pHook DNA are incubated with 10× concentration of lipofectAce in Modified Eagle's Medium (MEM, Canadian Life Technologies) and incubated with parent HEK cells plated on 25 mm culture dishes. After 3–4 hours the solution is replaced with a standard culture medium plus 20% fetal bovine serum and 1% antimycotic. Transfected cells are maintained at 37C in an air/5% CO2 incubator in 25 mm Petri dishes plated on glass coverslips for 24–48 hours to allow channel expression to occur. 20 min prior to experiments, cells are treated with beads coated with phOX. After 15 min, excess beads are […] off with cell culture medium and cells which had beads stuck to them are used for electrophysiological tests.
(§2) For whole-cell recording the control pipette filling solution contained (in mM): KCl, 130; EGTA, 5; MgCl2, 1; HEPES, 10; Na2ATP, 4; GTP, 0.1; and is adjusted to pH 7.2 with KOH. The control bath solution contained (in mM): NaCl, 135; KCI, 5; sodium acetate, 2.8; MgCl2, 1; HEPES, 10; CaCl2, 1; and is adjusted to pH 7.4 with NaOH. The test ion channel modulating compound is dissolved to 10 mM stock solutions in water and used at concentrations between 0.5 and 100 μM.
(§3) Coverslips containing cells are removed from the incubator before experiments and placed in a superfusion chamber (volume 250 μl) containing the control bath solution at 22C to 23C. All recordings are made via the variations of the patch-clamp technique, using an Axopatch 200A amplifier (Axon Instruments, CA). Patch electrodes are pulled from thin-walled borosilicate glass (World Precision Instruments; FL) on a horizontal micropipette puller, fire-polished, and filled with appropriate solutions. Electrodes had resistances of […] when filled with control filling solution. Analog capacity compensation is used in all whole cell measurements. In some experiments, leak subtraction is applied to data. Membrane potentials have not been corrected for any junctional potentials that arose between the pipette and bath solution. Data are filtered at 5 to 10 kHz before digitization and stored on a microcomputer for later analysis using the pClamp6 software (Axon Instruments, Foster City, Calif.). Due to the high level of expression of channel cDNA's in HEK cells, there is no need for signal averaging. The average cell capacitance is quite small, and the absence of ionic current at negative membrane potentials allowed faithful leak subtraction of data.
(§4) The concentration-response curves for changes in peak and steady-state current produced by the test compound are computer-fitted to the Hill equation: f=1−1/[1+([…])^n] [1]
(§5) where f is the fractional current (f=Idrug/Icontrol) at drug concentration [D]; IC50 is the concentration producing half-maximal inhibition and n is the Hill coefficient.
(§6) Compounds of the present invention may be evaluated by this method. […] Block is determined from the decrease in peak hH1 Na^+ current, or in steady-state Kv1.5 and integrated Kv4.2 current in the presence of drug. To record Na^+ current, cells are depolarized from the holding potential of −100 mV to a voltage of −30 mV for 10 ms to fully open and inactivate the channel. To record Kv1.5 and Kv4.2 current, cells are depolarized from the holding potential of −80 mV to a voltage of +60 mV for 200 ms to fully open the channel. Currents are recorded in the steady-state at a range of drug concentrations during stimulation every 4 s. […]

In the next experiment the target is T3, Kv4.2 (Homo sapiens, UniProt Q9NZV8).
T3 construct: expressed in transfected cells; host or cells: HEK cells, transient transfection, vector pCDNA3
T3 sequence (Q9NZV8 1-630): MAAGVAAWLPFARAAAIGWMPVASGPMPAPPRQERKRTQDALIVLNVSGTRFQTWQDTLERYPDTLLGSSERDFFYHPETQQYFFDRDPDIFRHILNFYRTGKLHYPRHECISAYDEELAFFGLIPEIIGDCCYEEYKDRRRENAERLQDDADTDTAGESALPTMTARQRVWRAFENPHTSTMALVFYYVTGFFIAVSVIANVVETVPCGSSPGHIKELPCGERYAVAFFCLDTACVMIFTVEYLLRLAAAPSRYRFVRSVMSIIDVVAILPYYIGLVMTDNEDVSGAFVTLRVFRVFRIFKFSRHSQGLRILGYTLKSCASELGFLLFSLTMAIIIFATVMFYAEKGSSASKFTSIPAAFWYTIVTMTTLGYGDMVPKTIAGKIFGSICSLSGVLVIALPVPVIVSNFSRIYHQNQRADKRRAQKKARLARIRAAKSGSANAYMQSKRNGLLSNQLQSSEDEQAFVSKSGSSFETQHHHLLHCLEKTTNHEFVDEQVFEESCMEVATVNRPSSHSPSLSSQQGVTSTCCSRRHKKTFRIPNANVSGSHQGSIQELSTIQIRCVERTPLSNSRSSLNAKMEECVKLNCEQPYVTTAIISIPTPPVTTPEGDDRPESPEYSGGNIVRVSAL
In words: Patch-clamp inhibition of cloned ion channel current in transfected HEK cells: Kv4.2. To be noted: integrated current, -80 mV to +60 mV. On the procedure: as §1, §2, §3, §4, §5, §6

T1 sequence (Q12809 whole entry): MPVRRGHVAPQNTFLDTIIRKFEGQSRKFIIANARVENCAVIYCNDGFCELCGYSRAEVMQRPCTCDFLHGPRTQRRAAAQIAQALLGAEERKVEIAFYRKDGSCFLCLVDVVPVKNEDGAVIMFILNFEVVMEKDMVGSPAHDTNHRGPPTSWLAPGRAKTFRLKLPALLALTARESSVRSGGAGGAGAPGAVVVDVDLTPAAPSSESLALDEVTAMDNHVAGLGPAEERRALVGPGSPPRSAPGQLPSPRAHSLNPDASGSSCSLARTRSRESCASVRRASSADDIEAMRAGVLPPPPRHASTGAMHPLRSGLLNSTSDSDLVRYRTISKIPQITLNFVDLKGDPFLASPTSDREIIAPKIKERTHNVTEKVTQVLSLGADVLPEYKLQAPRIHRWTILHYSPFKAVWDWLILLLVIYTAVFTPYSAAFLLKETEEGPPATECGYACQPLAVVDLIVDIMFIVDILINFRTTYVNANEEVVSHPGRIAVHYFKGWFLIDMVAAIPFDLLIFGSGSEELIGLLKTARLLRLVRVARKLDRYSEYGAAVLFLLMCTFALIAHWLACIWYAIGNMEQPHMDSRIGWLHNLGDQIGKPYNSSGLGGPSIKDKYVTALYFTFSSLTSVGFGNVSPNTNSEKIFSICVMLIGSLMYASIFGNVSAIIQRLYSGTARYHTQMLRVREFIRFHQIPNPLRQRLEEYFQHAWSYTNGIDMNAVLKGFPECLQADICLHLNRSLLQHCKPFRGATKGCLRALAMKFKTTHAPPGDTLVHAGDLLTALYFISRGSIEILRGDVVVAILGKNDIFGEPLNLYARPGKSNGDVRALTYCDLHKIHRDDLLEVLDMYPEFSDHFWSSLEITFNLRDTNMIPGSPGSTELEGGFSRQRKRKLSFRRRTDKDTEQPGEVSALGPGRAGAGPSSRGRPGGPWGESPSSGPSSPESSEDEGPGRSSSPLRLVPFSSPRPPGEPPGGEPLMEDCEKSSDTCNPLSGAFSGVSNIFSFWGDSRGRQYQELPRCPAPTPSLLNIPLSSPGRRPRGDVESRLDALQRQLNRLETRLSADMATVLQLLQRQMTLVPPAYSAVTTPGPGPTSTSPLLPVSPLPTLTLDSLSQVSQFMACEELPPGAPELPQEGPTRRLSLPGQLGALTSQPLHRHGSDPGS
T2 sequence (Q14524 whole entry): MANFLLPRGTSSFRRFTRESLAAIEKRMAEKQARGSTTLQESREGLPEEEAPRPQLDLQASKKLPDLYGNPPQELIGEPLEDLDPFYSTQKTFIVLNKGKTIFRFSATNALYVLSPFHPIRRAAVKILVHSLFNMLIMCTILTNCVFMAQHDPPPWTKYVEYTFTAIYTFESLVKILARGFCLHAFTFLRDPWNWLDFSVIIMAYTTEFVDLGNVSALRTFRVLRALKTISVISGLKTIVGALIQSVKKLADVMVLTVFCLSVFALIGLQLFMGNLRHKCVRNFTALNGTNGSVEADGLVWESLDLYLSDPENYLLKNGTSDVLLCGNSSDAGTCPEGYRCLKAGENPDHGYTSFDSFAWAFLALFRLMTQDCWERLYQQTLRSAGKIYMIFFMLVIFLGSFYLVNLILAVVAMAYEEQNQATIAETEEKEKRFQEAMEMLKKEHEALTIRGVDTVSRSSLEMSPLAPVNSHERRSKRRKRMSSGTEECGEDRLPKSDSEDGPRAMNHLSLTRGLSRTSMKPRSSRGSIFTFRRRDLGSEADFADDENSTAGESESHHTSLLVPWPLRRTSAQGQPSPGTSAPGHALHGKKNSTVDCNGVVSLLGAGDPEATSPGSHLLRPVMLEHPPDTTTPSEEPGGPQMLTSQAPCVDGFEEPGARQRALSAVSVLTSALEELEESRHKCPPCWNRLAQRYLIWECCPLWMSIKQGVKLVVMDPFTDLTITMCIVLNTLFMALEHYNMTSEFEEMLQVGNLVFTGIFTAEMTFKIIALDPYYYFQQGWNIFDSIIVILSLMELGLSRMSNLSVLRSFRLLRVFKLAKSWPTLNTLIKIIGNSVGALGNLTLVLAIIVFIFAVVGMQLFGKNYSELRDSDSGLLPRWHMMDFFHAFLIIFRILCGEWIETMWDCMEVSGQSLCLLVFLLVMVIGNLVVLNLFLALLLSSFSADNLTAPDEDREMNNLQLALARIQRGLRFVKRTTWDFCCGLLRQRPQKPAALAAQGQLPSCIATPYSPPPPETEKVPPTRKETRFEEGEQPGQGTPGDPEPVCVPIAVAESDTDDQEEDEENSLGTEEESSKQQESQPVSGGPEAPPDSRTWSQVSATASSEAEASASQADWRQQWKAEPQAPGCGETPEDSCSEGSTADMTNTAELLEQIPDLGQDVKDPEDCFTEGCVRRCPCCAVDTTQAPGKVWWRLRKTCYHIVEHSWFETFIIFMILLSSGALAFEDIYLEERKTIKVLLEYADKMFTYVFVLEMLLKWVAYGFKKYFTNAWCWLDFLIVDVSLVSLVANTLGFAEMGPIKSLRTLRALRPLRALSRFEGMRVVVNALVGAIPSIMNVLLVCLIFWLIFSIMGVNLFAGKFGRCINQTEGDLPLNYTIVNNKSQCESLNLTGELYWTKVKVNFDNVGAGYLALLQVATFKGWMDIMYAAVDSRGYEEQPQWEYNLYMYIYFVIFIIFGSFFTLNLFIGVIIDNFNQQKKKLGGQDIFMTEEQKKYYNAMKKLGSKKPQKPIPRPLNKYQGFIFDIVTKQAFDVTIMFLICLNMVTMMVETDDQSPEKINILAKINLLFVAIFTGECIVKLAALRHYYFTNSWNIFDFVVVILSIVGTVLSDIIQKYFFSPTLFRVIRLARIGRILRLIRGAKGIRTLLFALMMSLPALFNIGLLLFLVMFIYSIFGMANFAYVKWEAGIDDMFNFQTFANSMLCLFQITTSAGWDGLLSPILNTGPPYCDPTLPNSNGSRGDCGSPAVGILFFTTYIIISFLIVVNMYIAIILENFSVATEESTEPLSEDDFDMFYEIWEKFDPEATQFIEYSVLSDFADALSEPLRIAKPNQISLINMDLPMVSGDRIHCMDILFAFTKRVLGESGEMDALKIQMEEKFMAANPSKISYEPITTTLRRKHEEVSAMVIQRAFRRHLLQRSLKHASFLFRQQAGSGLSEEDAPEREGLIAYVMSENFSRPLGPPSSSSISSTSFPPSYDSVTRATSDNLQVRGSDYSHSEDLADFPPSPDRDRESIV

Regarding `COc1ccc(CCCOc2cccn3cc(C)nc23)cc1OC` [Compound 3, 8-[3-(3,4-DIMETHOXYPHENYL)PROPOXY]-2-METHYLIMIDAZO[1,2-α]PYRIDINE MONOHYDROCHLORDE], the values for the IC50 on HERG, on hH1 Na+ current and against Kv4.2 were 0.6 µM, 94 µM and 13 µM, respectively.
